Patent US7169785B2, “Methods and compositions of novel triazine compounds” (Reddy US Therapeutics, Inc., priority 2001, dated 2007)
Where two headings read alike, the source gives them in different places.

Columns and labels:
[1] = test system: Human aortic smooth muscle cells; assay: Smooth muscle cell proliferation assay (anti-proliferation assay, perlecan); format: cell-based; conditions: concentration not given
IL6 = assay: Inflammation Data of Table 8: IL6 production compared to cells that did not receive compound (stimulus AGE or TNF not given); format: cell-based
From the text: Additional bioactivity data for compounds of the present invention are presented in Table 8, where compounds that have at least the activity of effecting cellular proliferation or at least the activity of modulating inflammation activity, as measured by the assays taught herein, are provided. […] The inclusion of compounds in the categories of the Tables disclosed herein, including this Table, is not to be seen as limiting, in that compounds included in such Tables have at least the activity shown for inclusion in the Table and may have more or other activities. Nor are the Tables to be seen as limiting in that these are the only compounds disclosed herein that have that activity, representative compounds are shown in the Tables that have at least that particular activity for inclusion in the Table. One or more compounds disclosed herein have at least an activity that has utility in treatment of disease states. Note that any hydrogen atoms that are required for any atom to attain its usual valence in a structure presented in Table 8, whether a carbon atom or a heteroatom, should be inferred if it is not specifically indicated.

cells = assay: Cytotoxicity / lactate dehydrogenase assay and visual observation of cells; format: cell-based
Description: Assays for determining the activity of compounds capable of cytotoxic activity include those taught in herein and others that are well known in the art. In general, to determine if there is cytotoxic activity associated with a compound, cells of a particular type, in a growing stage or a quiescient stage, are treated with the compound of interest. Various parameters of cell death or cessation are used to measure the effects of the compound. For example, the amount of nucleic acid or protein synthesis can be measured or visual observation of the state of the cells, such as release from the substrate, can be used to measure the state of the cells.
An appropriate number of cells are plated in four 96-well plates, one plate for “day 0” and three plates for days 1–3. Cells are treated with at least one compound of the present invention in varying concentrations with and without the apoptosis inducer cisplatin (2 μM) (“+cis” or “−cis”). Unteated cells are also assayed with and without cisplatin. After transfection, the plates are incubated at 37° C. overnight.
An appropriate number of cells are plated in four 96-well plates, one plate for “day 0” and three plates for days 1–3. Cells are treated with at least one compound of the present invention in varying concentrations. The negative control cells have normal media conditions, a duplicate set of wells is treated with the composition in which the compound is provided, but there is no added compound and the positive control cells are treated with the apoptosis inducer cisplatin (2 μM). All of the cells are transfected with a vector having a promoter that is responsive to apoptosis conditions. When apoptosis occurs, the promoter is turned on and the lactic dehydrogenase gene is activated and the enzyme protein is made and active. Activity is easily detected with a color change. After transfection, the plates are incubated at 37° C. overnight.
About 8 mls of warmed alpha MEM LDH lysis buffer (2% Triton X100) and about 8 mls of culture media (½ dilution) are combined. Two 96-well v-bottom plates are prepared, one labeled “lysis” and one labeled “supernatant.” To lyse the cells, about 200 μl Alpha MEM lysis buffer (diluted ½) is added to one test plate from which the supernatant has been removed and added to the plate labeled supernatant. After mixing, about 200 μl of lysed cells are transferred to the lysis plate. Both the lysis and supernatant plates are centrifuged at about 1600 rpm for about 10 min. After centrifugation, about 100 μl of both the supernatant or lysate is transferred to corresponding 96-well flat-bottomed plates.
The assay for cytotoxicity uses the Cytotoxicity Detection Kit (LDH) from Roche Diagnostics Corp. (Indianapolis, Ind.). Using the directionts provided, the dye solution is mixed and added each well of the lysate and supernatant plate and incubated for up to 20–25 min at 15–25° C. in the dark.

IL-6 [2] = assay: AGE (G-HSA)-induced inflammatory response determined by IL-6 ELISA in HAEC; format: cell-based, human; conditions: Homo sapiens; for activity at 10 µM: 24 h, Compds tested @ 10 uM, IL6, read-out: % IL6 production compare to AGE stimulation of IL6 (100%)
Description: Human aortic endothelial cells (HAEC, Clonetics) were cultured according to manufacturer in growth medium (Clonetics): basal medium containing human epidermal growth factor, hydrocortisone, vascular endothelial growth factor, heparin binding growth factor-B, long R3-insulin-like growth factor-1, ascorbic acid, gentamicin/amphotericin and 5% FBS. These cell were allowed to reach at least 90% confluency before subjected to experimental treatments. […] Tumor necrosis factor α was from R&D Systems.
All treatments, compound-added and controls were carried out in serum free media containing 0.2% albumin. Media from all conditions were collected and used for IL-6 ELISA.
IL-6 ELISA was carried out using human IL-6 DuoSet ELISA development kit as described by manufacturer (R&D Systems). Mouse anti-human Il-6 was used as the capture antibody (2 ug/ml) and biotinylated goat anti-human IL-6 (200 ng/ml) was used as the detection antibody. Culture media were incubated with capture antibody (in 96 well) for 2 h at room temperature. Wells were washed three times with wash buffer (0.05% tween-20 in phosphate buffered saline (PBS) pH 7.4) followed by incubation with detection antibody for 2 h at room temperature. Following three washes wells were incubated with Streptavidin-HRP for 20 min. Color development was read at 450 nm in a Microplate reader.

IL-6 [3] = assay: TNF-α-induced IL-6 production determined by IL-6 ELISA in HAEC; format: cell-based, human; conditions: Homo sapiens, 24 h; Compds tested @ 10 uM; HAEC, IL6; read-out: % IL6 production compare to TNF stimulation of IL6 (100%)

In the case of `COc1ccc(Nc2nc(NC3CCCCCC3)nc(OCCOc3ccccc3F)n2)cc1Cl`, the “Proliferation Data (result in words)” value [1] is reported as “Not active” and the “Inflammation Data (result in words)” value (IL6; concentration not given) is reported as “Not active”.
In the case of `COc1ccc(Nc2nc(NC3CCCCCC3)nc(OCc3cccc(C)n3)n2)cc1Cl`, the “Proliferation Data (result in words)” value [1] is reported as “Not active” and the inhibition at 10 µM (IL6) is reported as 60%.
With `Oc1ccc(Nc2nc(Cl)nc(Cl)n2)cc1Cl` the “Proliferation Data (result in words)” value [1] was “Not active” and the inhibition at 10 µM (IL6) was 35%.
`Oc1ccc(Nc2nc(Cl)nc(NC3CCCCCC3)n2)cc1Cl` was tested, and the “Proliferation Data (result in words)” value [1] was “Not active”, the inhibition at 5 µM (IL6) was 25% and the inhibition at 10 µM (IL6) was 25%.
`COc1ccc(Nc2nc(Cl)nc(NC3CC3)n2)cc1F` was tested, and the “Proliferation Data (result in words)” value [1] was “Not active” and the inhibition at 10 µM (IL6) was 36%.
In the case of `COc1ccc(Nc2nc(NC3CC3)nc(N(C)C3CCN(C)CC3)n2)cc1F`, the “Proliferation Data (result in words)” value [1] is reported as “Not active” and the inhibition at 10 µM (IL6) is reported as 25%.
In the case of `CCN1CCCC1CNc1nc(Nc2ccc(OC)c(F)c2)nc(NC2CC2)n1` (stereo not shown), the “Proliferation Data (result in words)” value [1] is reported as “Not active” and the inhibition at 10 µM (IL6) is reported as 23%.
With `COc1ccc(Nc2nc(NC3CC3)nc(N(C)C3CCN(C)CC3)n2)cc1Cl` the “cell death under Inflammation Data” value (cells; 10 uM) was 15%.
With `CCN1CCCC1CNc1nc(Nc2ccc(OC)c(F)c2)nc(Nc2ccc(OC)c(F)c2)n1` (stereo not shown) the inhibition at 5 µM (IL6) was 25% and the inhibition at 10 µM (IL6) was 35%.
In the case of `CCN1CCCC1CNc1nc(Nc2cnc3ccccc3c2)nc(NC2CCCCCC2)n1` (stereo not shown) [Compound 3, N^2-cycloheptyl-N^4-[(1-ethyl-2-pyrrolidinyl)methyl]-N^6-(3-quinolinyl)-1,3,5-triazine-2,4,6-triamine], the Toxicity (cells; toxic or cause cell death) is reported as “toxic” and the activity at 10 µM (IL-6 [2]) is reported as 1%.
`CCN1CCCC1CNc1nc(Nc2cccc3cccnc23)nc(NC2CCCCCC2)n1` (stereo not shown) [Compound 5, N^2-cycloheptyl-N^4-[(1-ethyl-2-pyrrolidinyl)methyl]-N^6-(8-quinolinyl)-1,3,5-triazine-2,4,6-triamine] was tested, and the Toxicity (cells; toxic or cause cell death) was “toxic”.
With `CCN1CCCC1CNc1nc(Nc2ccc(Cl)c(Cl)c2)nc(NC2CCCCCC2)n1` (stereo not shown) [Compound 7, N^2-cycloheptyl-N^4-(3,4-dichlorophenyl)-N^6-[(1-ethyl-2-pyrrolidinyl)methyl]-1,3,5-triazine-2,4,6-triamine] the Toxicity (cells; toxic or cause cell death) was “toxic”.
For `CCN1CCCC1CNc1nc(Nc2ccc(F)c(F)c2)nc(NC2CCCCCC2)n1` (stereo not shown) [Compound 8, N^2-cycloheptyl-N^4-(3,4-difluorophenyl)-N^6-[(1-ethyl-2-pyrrolidinyl)methyl]-1,3,5-triazine-2,4,6-triamine], the Toxicity (cells; toxic or cause cell death) was “toxic”.
`CCN1CCCC1CNc1nc(Nc2ccc(OC(F)(F)F)cc2)nc(NC2CCCCCC2)n1` (stereo not shown) [Compound 9, N^2-cycloheptyl-N^4-[(1-ethyl-2-pyrrolidinyl)methyl]-N^6-[4-(trifluoromethoxy)phenyl]-1,3,5-triazine-2,4,6-triamine] was tested, and the Toxicity (cells; toxic or cause cell death) was “toxic”.
With `CCN1CCCC1CNc1nc(Nc2ccc(Cl)cc2)nc(NC2CCCCCC2)n1` (stereo not shown) [Compound 12, N^2-(4-chlorophenyl)-N^4-cycloheptyl-N^6-[(1-ethyl-2-pyrrolidinyl)methyl]-1,3,5-triazine-2,4,6-triamine] the Toxicity (cells; toxic or cause cell death) was “toxic”.
In the case of `CCN1CCCC1CNc1nc(Nc2ccc(Br)cc2)nc(NC2CCCCCC2)n1` (stereo not shown) [Compound 13, N^2-(4-bromophenyl)-N^4-cycloheptyl-N^6-[(1-ethyl-2-pyrrolidinyl)methyl]-1,3,5-triazine-2,4,6-triamine], the Toxicity (cells; toxic or cause cell death) is reported as “toxic”.
`CCOC(=O)c1ccc(Nc2nc(NCC3CCCN3CC)nc(NC3CCCCCC3)n2)cc1` (stereo not shown) [Compound 14, Ethyl 4-[(4-(cycloheptylamino)-6-{[(1-ethyl-2-pyrrolidinyl)methyl]amino}-1,3,5-triazin-2-yl)-amino]benzoate] was tested, and the Toxicity (cells; toxic or cause cell death) was “toxic”.
In the case of `CCN1CCCC1CNc1nc(Nc2cccc(F)c2)nc(NC2CCCCCC2)n1` (stereo not shown) [Compound 16, N^2-cycloheptyl-N^4-[(1-ethyl-2-pyrrolidinyl)methyl]-N^6-(3-fluorophenyl)-1,3,5-triazine-2,4,6-triamine], the Toxicity (cells; toxic or cause cell death) is reported as “toxic”.
For `CCN1CCCC1CNc1nc(Nc2ccccc2Cl)nc(NC2CCCCCC2)n1` (stereo not shown) [Compound 21, N^2-(2-chlorophenyl)-N^4-cycloheptyl-N^6-[(1-ethyl-2-pyrrolidinyl)methyl]-1,3,5-triazine-2,4,6-triamine], the Toxicity (cells; toxic or cause cell death) was “toxic”.
For `CCN1CCCC1CNc1nc(Nc2ccccc2Br)nc(NC2CCCCCC2)n1` (stereo not shown) [Compound 22, N^2-(2-bromophenyl)-N^4-cycloheptyl-N^6-[(1-ethyl-2-pyrrolidinyl)methyl]-1,3,5-triazine-2,4,6-triamine], the Toxicity (cells; toxic or cause cell death) was “toxic”.
`CCN1CCCC1CNc1nc(Nc2ccc(Oc3ccccc3)cc2)nc(NC2CCCCCC2)n1` (stereo not shown) [Compound 36, N^2-cycloheptyl-N^4-[(1-ethyl-2-pyrrolidinyl)methyl]-N^6-(4-phenoxyphenyl)-1,3,5-triazine-2,4,6-triamine] was tested, and the Toxicity (cells; toxic or cause cell death) was “toxic”.
For `CCN1CCCC1CNc1nc(NC2CCCCCC2)nc(N(C)c2ccc(OC(F)(F)F)cc2)n1` (stereo not shown) [Compound 47, N^2-cycloheptyl-N^4-[(1-ethyl-2-pyrrolidinyl)methyl]-N^6-methyl-N^6-[4-(trifluoromethoxy)phenyl]-1,3,5-triazine-2,4,6-triamine], the Toxicity (cells; toxic or cause cell death) was “toxic”.
For `CCN1CCCC1CNc1nc(Nc2ccc(OC)c(F)c2)nc(NC2CCCCCCC2)n1` (stereo not shown) [Compound 54, N^2-cyclooctyl-N^4-[(1-ethyl-2-pyrrolidinyl)methyl]-N^6-(3-fluoro-4-methoxyphenyl)-1,3,5-triazine-2,4,6-triamine], the Toxicity (cells; toxic or cause cell death) was “toxic”.
For `CCN1CCCC1CNc1nc(Nc2ccc(OC)c(F)c2)nc(N2CCCC3CCCCC32)n1` (stereo not shown) [Compound 59, N^2-[(1-ethyl-2-pyrrolidinyl)methyl]-N^4-(3-fluoro-4-methoxyphenyl)-N^6-octahydro-1(2H)-quinolinyl-1,3,5-triazine-2,4-diamine], the Toxicity (cells; toxic or cause cell death) was “toxic”.
For `COc1ccc(Nc2nc(NCCN(C)C)nc(NC3CCCCCC3)n2)cc1F` [Compound 93, N^2-cycloheptyl-N^4-[2-(dimethylamino)ethyl]-N^6-(3-fluoro-4-methoxyphenyl)-1,3,5-triazine-2,4,6-triamine], the activity at 10 µM (IL-6 [3]) was 13%, the Toxicity (cells; toxic or cause cell death) was “toxic” and the activity at 10 µM (IL-6 [2]) was 6%. It also gave an IC50 (IL-6 [2]; IL6, unit inferred, read-out: IC50 (AGE stimulation of IL6)) of 3.36 µM.
`COc1ccc(Nc2nc(OCC3CCCCC3)nc(N(C)C3CCN(C)CC3)n2)cc1Cl` [Compound 119, N-(3-Chloro-4-methoxy-phenyl)-6-cyclohexylmethoxy-N′-methyl-N′-(1-methyl-piperidin-4-yl)-[1,3,5]triazine-2,4-diamine] was tested, and the Toxicity (cells) was “toxic”.
`CCN1CCCC1CNc1nc(Nc2ccc(OC)c(Cl)c2)nc(NC2CCCCCC2)n1` (stereo not shown) [Compound 136, N^2-(3-chloro-4-methoxy-phenyl)-N^4-cycloheptyl-N^6-(1-ethyl-pyrrolidin-2-ylmethyl)-1,3,5-triazine-2,4,6-triamine] was tested, and the Toxicity (cells; at 3 uM, very toxic) was “Nothing but celldebris at 3 uM verytoxic”.
